# Laboratory results taken from US20240299353A1, “COMPOSITIONS AND METHODS FOR TREATING […] 5-MEO-DMT” (Alvarius Pharmaceuticals Ltd., priority 2021, published 2024).
# What was measured:
# [1] = tested on: GR; test: Western blot of GR in hippocampus, chronic cocaine ± 5-MeO-DMT; assay type: in vivo, Male Wistar rats
# Source text: (§1) Male Wistar rats aged 7 weeks were acclimatized to the facility for 1 week prior to the beginning of the study. […] Animals were euthanized 23- or 119-hours following vehicle or 5-MeO-DMT administration.
# (§2) Following euthanasia brain regions of interest were isolated. Briefly, the olfactory bulbs were removed before the brain was placed in a rat brain matrix (FIG. 2A). Sterile blades were inserted at positions 2 and 3 (FIG. 2B) to extract a coronal slice containing the Bregma+˜0.2-+˜2.2 coordinates (FIG. 2C). From this tissue slice a blunted 12 G needle was used to punch dissect the NAc and dorsal striatum (DS) (FIG. 2D-2E) identified using the rat brain atlas (Panxinos and Watson 2nd edition). The PFC, hippocampus (Hip) and amygdala (Amyg) were then blunt dissected (FIG. 3A-3D). All regions were frozen in liquid nitrogen and stored at −80° C. until processed.
# (§3) These treatment groups were used for the molecular assessment of addiction-linked markers.
# Determination of protein concentration—a bicinchoninic acid assay (BCA, ThermoFisher) was conducted to determine the total protein concentration in tissue lysates following manufacturer's instructions. […] For tissue lysates a 1:10 dilution was performed with cell lysis buffer to ensure absorbance values lay within the working range established by the standards. […] The plate was covered and incubated for 30 mins at 37° C. before absorbance was read at 562 nm on a plate reader (SpectraMax M3). The absorbance values were used to form a standard curve of known protein concentrations and protein concentration of samples were derived using the equation of the line. […]
# SDS-PAGE and Western Blotting—Following equalisation of protein concentrations, 6× sample loading buffer (15% SDS, 15% […], 50% glycerol, 0.01% bromophenol blue, […]) was added to each sample using a dilution factor of 1:5 of the total volumes before boiling at 100° C. for 5 mins. […] The percentage of acrylamide in the resolving or stacking gel was determined by the molecular weight of the protein of interest. […]
# [2] = tested on: 5-HT1AR; test: Western blot of 5-HT1AR in brain regions, chronic cocaine ± 5-MeO-DMT; assay type: in vivo, Male Wistar rats
# Source text: as §1, §2, §3
# Determination of protein concentration—a bicinchoninic acid assay (BCA, ThermoFisher) was conducted to determine the total protein concentration in tissue lysates following manufacturer's instructions. Briefly, bovine serum albumin (BSA) standards were prepared in a serial dilution (0-2.0 mg protein/ml) and 200 μl working reagent (50:1, reagent A: reagent B) was added to each of the standards and samples in a 96 well plate (Greiner). For tissue lysates a 1:10 dilution was performed with cell lysis buffer to ensure absorbance values lay within the working range established by the standards. All samples and standards were added in duplicate. The plate was covered and incubated for 30 mins at 37° C. before absorbance was read at 562 nm on a plate reader (SpectraMax M3). The absorbance values were used to form a standard curve of known protein concentrations and protein concentration of samples were derived using the equation of the line. All samples were standardized to the lowest protein concentration using distilled H20 (dH2O).
# SDS-PAGE and Western Blotting—Following equalisation of protein concentrations, 6× sample loading buffer (15% SDS, 15% […], 50% glycerol, 0.01% bromophenol blue, […]) was added to each sample using a dilution factor of 1:5 of the total volumes before boiling at 100° C. for 5 mins. Samples were stored at −20° C. until use. One dimensional sodium-dodecyl-sulphate polyacrylamide gel electrophoresis (SDS-PAGE) was used for protein separation based on molecular weight. The percentage of acrylamide in the resolving or stacking gel was determined by the molecular weight of the protein of interest. In this instance all gels consisted of a 5% stacking gel and a 10% resolving gel with the exception of mGluR5, G9a (8%) and H3K9Me2 (12%). 20 μg of protein was loaded and resolved using SDS-PAGE. Gel electrophoresis was conducted at 80V while the protein was in the stacking gel, once it migrated to the resolving gel the voltage was increased to 120V and ran for 90 mins. Samples were transferred to a 0.45 μm polyvinylidene difluoride (PVDF) membrane (Analab) for 1 hour at 100V and blocked in 5% milk blocking solution made in tris-buffered saline containing tween®-20 (TBS-T, Sigma) for 90 mins. Primary antibodies (FIG. 5) were diluted in 5% BSA in TBS-T and incubated with membranes overnight at 4° C. or for 2 hours at room temperature. After incubation with primary antibodies the membranes were washed in TBS-T for 4×10 minutes before incubation with 1:2000 anti-rabbit and 1:2000 anti-mouse Alexa Fluro® conjugated secondary antibodies (Invitrogen) in 2% milk for 1 hour at room temperature. Membranes were washed in TBS-T for 4×10 minutes and in TBS for 1×10-minute wash. Proteins were visualized using Odyssey® infrared imaging system. Protein expression was quantified using Image Studio Lite (Version 5.2) and expression intensities were normalized to a house keeping protein, α-Tubulin or β-actin.
# [3] = hippocampus, 120 h, all treatment groups
Structure (SMILES),"GR expression ([1]; 24 h, cocaine, p=0.0434, no post hoc differences)","GR expression ([1]; 120 h, cocaine effect)","5-HT1AR expression ([2]; amygdala, 24 h, cocaine, p=0.0172, no post hoc differences)","5-HT1AR expression ([2]; amygdala, 120 h, cocaine)","5-HT1AR expression ([2]; hippocampus, 24 h, repeated cocaine)","5-HT1AR expression [2, 3]","GR expression ([1]; 24 h and 120 h, 5-MeO-DMT)","5-HT1AR expression ([2]; hippocampus, 24 h, 10 mg/kg 5-MeO-DMT alone (decrease))","5-HT1AR expression ([2]; hippocampus, 24 h, 20 mg/kg 5-MeO-DMT alone)","5-HT1AR expression ([2]; hippocampus, 24 h, cocaine + either 5-MeO-DMT concentration (10 or 20 mg/kg))"
"COC(=O)[C@H]1[C@@H](OC(=O)c2ccccc2)C[C@@H]2CC[C@H]1N2C.Cl [cocaine, cocaine hydrochloride, reference compound]",significantly affected GR expression,not detectable,significant cocaine effect,does not persist to 120 hours,decreased 5-HT1AR expression,equal across treatment groups,–,–,–,–
"COc1ccc2[nH]cc(CCN(C)C)c2c1 [5-MeO-DMT, 5-methoxy-N,N-dimethyltryptamine]",–,–,–,–,–,equal across treatment groups,no 5-Meo-associated regulation of GR,only the 10 mg/kg concentration achieves significance,trend towards decreasing expression levels,restoring receptor expression to levels comparable to control
